# Source: patent US8299048B2, “Hexahydrocyclopentyl[f]indazole sulfonamides and derivatives thereof as selective glucocorticoid receptor modulators” (Merck Sharp & Dohme Corp., priority 2008, dated 2012)
# Molecular target: T1, glucocorticoid receptor (Homo sapiens, UniProt P04150)
# T1 construct: endogenous in cells
# T1 sequence (P04150 1-777): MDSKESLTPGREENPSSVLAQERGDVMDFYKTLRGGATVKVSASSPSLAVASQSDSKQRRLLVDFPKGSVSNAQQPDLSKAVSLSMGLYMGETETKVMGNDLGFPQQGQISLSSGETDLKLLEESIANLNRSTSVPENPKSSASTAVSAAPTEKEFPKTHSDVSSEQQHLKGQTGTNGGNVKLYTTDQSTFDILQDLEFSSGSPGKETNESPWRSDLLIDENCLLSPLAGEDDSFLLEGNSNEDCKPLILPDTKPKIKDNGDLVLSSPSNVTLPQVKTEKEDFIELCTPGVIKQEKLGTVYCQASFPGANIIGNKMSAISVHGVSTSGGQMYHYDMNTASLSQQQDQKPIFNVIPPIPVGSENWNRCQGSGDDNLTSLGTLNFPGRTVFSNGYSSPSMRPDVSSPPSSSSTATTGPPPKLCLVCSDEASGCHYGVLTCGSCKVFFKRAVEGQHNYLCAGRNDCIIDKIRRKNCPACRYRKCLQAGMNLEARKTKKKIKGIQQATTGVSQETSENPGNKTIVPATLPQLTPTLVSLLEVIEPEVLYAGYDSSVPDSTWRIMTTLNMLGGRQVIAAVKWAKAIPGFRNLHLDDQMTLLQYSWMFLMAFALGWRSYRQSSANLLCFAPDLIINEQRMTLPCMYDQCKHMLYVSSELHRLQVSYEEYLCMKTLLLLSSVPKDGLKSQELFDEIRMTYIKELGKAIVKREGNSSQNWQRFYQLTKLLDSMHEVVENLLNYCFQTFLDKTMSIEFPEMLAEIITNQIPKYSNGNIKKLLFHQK
# Assay: Ligand binding assay (GR BIND)
# Method in brief: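 Displacement of tritiated dexamethasone (6 nM trace solution) from receptor in cell supernatant was measured after overnight incubation at 4 °C in molybdate-containing TEGM, pH 7.2, 2% ethanol. Hydroxylapatite pulled down the receptor–ligand complex for filter washing and scintillation counting, with dexamethasone as reference.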
row,Ki,Structure (SMILES)
1,4.1 nM,"C[C@]12Cc3cnn(-c4ccccc4)c3C=C1CC[C@@H]2CN(CCc1ccccn1)S(=O)(=O)Cc1cccnc1 [Example 140, N-{[(4αR,5S)-4α-methyl-1-phenyl-1,4,4α,5,6,7-hexahydrocyclopenta[f]indazol-5-yl]methyl}-1-pyridin-3-yl-N-(2-pyridin-2-ylethyl)methanesulfonamide]"
2,1.8 nM,"C[C@]12Cc3cnn(-c4ccc(F)cc4)c3C=C1CC[C@@H]2CN(CCc1ccccc1F)S(=O)(=O)Cc1ccc(Cl)c(Cl)c1 [Example 111, 1-(3,4-dichlorophenyl)-N-[2-(2-fluorophenyl)ethyl]-N-{[(4αR,5S)-1-(4-fluorophenyl)-4α-methyl-1,4,4α,5,6,7-hexahydrocyclopenta[f]indazol-5-yl]methyl}methanesulfonamide]"
3,9.4 nM,"C[C@]12Cc3cnn(-c4ccc(F)cc4)c3C=C1CC[C@@H]2CN(CCO)S(=O)(=O)c1ccccc1C(N)=O [Example 117, 2-{[{[(4αR,5S)-1-(4-fluorophenyl)-4α-methyl-1,4,4α,5,6,7-hexahydrocyclopenta[f]indazol-5-yl]methyl}(2-hydroxyethyl)amino]sulfonyl}benzamide]"
4,0.9 nM,"C[C@]12Cc3cnn(-c4ccc(F)cc4)c3C=C1CC[C@@H]2CN(CC(O)c1ccccn1)S(=O)(=O)CC(F)(F)F (stereo partly drawn) [Example 142, 2,2,2-trifluoro-N-{[(4αR,5S)-1-(4-fluorophenyl)-4α-methyl-1,4,4α,5,6,7-hexahydrocyclopenta[f]indazol-5-yl]methyl}-N-(2-hydroxy-2-pyridin-2-ylethyl)ethanesulfonamide]"
5,5.2 nM,"CCCS(=O)(=O)N(CCOC)C[C@H]1CCC2=Cc3c(cnn3-c3ccc(F)cc3)C[C@@]21C [Example 95, N-{[(4αR,5S)-1-(4-fluorophenyl)-4α-methyl-1,4,4α,5,6,7-hexahydrocyclopenta[f]indazol-5-yl]methyl}-N-(2-methoxyethyl)propane-1-sulfonamide]"
6,0.9 nM,"COc1cccc(CCN(C[C@H]2CCC3=Cc4c(cnn4-c4ccc(F)cc4)C[C@@]32C)S(=O)(=O)CC(F)(F)F)c1 [Example 126, 2,2,2-trifluoro-N-{[(4αR,5S)-1-(4-fluorophenyl)-4α-methyl-1,4,4α,5,6,7-hexahydrocyclopenta[f]indazol-5-yl]methyl}-N-[2-(3-methoxyphenyl)ethyl]ethanesulfonamide]"
7,1.8 nM,"C[C@]12Cc3cnn(-c4ccc(F)cc4)c3C=C1CC[C@@H]2CN(CC(OS(=O)(=O)CC(F)(F)F)C(F)F)S(=O)(=O)CC(F)(F)F (stereo partly drawn) [Example 134, 2,2-difluoro-1-({{[(4αR,5S)-1-(4-fluorophenyl)-4α-methyl-1,4,4α,5,6,7-hexahydrocyclopenta[f]indazol-5-yl]methyl}[(2,2,2-trifluoroethyl)sulfonyl]amino}methyl)ethyl 2,2,2-trifluoroethanesulfonate]"
8,1 nM,"C[C@]12Cc3cnn(-c4ccc(F)cc4)c3C=C1CC[C@@H]2CN(CC1CC1)S(=O)(=O)c1cc(C(F)(F)F)ccc1Cl [Example 5, 2-chloro-N-(cyclopropylmethyl)-N-{[(4αR,5S)-1-(4-fluorophenyl)-4α-methyl-1,4,4α,5,6,7-hexahydrocyclopenta[f]indazol-5-yl]methyl}-5-(trifluoromethyl)benzenesulfonamide]"
9,1.1 nM,"COCCN(C[C@H]1CCC2=Cc3c(cnn3-c3ccc(F)cc3)C[C@@]21C)S(C)(=O)=O [Example 96, N-{[(4αR,5S)-1-(4-fluorophenyl)-4α-methyl-1,4,4α,5,6,7-hexahydrocyclopenta[f]indazol-5-yl]methyl}-N-(2-methoxyethyl)methanesulfonamide]"
